Reference: PMC4955774 (Bioorganic & medicinal chemistry, 2016)
Converted amounts (≈) assume the structure as drawn. Marks after values point to notes of the source that are not given here.

How the values were obtained:
[1] = tested on: 13 fungal strains (yeast and filamentous fungi); test: In vitro antifungal MIC assay, summary over the whole panel; type: cell-based, Candida and Aspergillus strains; details: summary statement over the 13 strains
[2] = tested on: C. albicans ATCC 64124; details: strain B; MIC-2 for azoles; previously reported; cited from earlier work
[3] = tested on: C. albicans ATCC MYA-1003(R); details: strain G; MIC-2 for azoles; previously reported; cited from earlier work
[4] = tested on: C. albicans ATCC MYA-2310(S); details: strain E; MIC-2 for azoles; previously reported; cited from earlier work
[5] = tested on: C. albicans ATCC MYA-2876(S); details: strain C; MIC-2 for azoles; previously reported; cited from earlier work
[6] = tested on: C. albicans ATCC 10231; details: strain A; MIC-2 for azoles; previously reported; cited from earlier work
[7] = tested on: C. albicans ATCC MYA-1237(R); details: strain F; MIC-2 for azoles; previously reported; cited from earlier work
[8] = tested on: C. albicans ATCC 90819(R); details: strain D; MIC-2 for azoles; previously reported; cited from earlier work
[9] = tested on: Aspergillus nidulans ATCC 38163; details: strain L, filamentous fungus, previously reported; cited from earlier work
[10] = tested on: C. albicans ATCC 10231; test: In vitro antifungal MIC assay, strain A; type: cell-based; details: Candida albicans, ATCC10231, read-out: MIC (MIC-0)
[11] = tested on: C. albicans ATCC 10231 (strain A); test: ROS assay with DCFH-DA dye; type: cell-based, Candida albicans; details: 1 h at 35 °C
[12] = tested on: C. albicans ATCC 64124 (strain B); test: Antifungal time-kill studies; type: cell-based, Candida albicans
[13] = tested on: C. albicans ATCC MYA-2876(S); test: In vitro antifungal MIC assay, strain C; type: cell-based; details: Candida albicans, read-out: MIC (MIC-0)
[14] = In vitro cytotoxicity assay, BEAS-2B; type: cell-based, mammalian; details: human
[15] = tested on: C. albicans ATCC MYA-1237(R); test: In vitro antifungal MIC assay, strain F; type: cell-based; details: Candida albicans, read-out: MIC (MIC-0)
[16] = tested on: C. albicans ATCC MYA-2310(S); test: In vitro antifungal MIC assay, strain E; type: cell-based; details: Candida albicans, read-out: MIC (MIC-0)
[17] = tested on: C. albicans ATCC MYA-1003(R); test: In vitro antifungal MIC assay, strain G; type: cell-based; details: Candida albicans, read-out: MIC (MIC-0)
[18] = In vitro cytotoxicity assay, A549; type: cell-based, mammalian; details: human
[19] = 1× and 2× respective MIC values

SMILES: C#CCOc1ccc(-c2nc3ccc(N4CCN(C)CC4)cc3[nH]2)cc1 [Compound 1]
- MIC / antifungal activity over all tested fungal strains [1]: ≥ 31.2 µg/mL

SMILES: CCCCCCCCCCCCOc1ccc(-c2nc3ccc(-c4nc5ccc(N6CCN(C)CC6)cc5[nH]4)cc3[nH]2)cc1 [Compound 13]
- MIC / antifungal activity over all tested fungal strains [1]: complete loss of antifungal activity

SMILES: CCC(C)n1ncn(-c2ccc(N3CCN(c4ccc(OCC5COC(Cn6cncn6)(c6ccc(Cl)cc6Cl)O5)cc4)CC3)cc2)c1=O (centres unmarked) [ITC, itraconazole]
- MIC (MIC-2) [2]: >62.5 ^a µg/mL
- MIC (MIC-2) [3]: 31.2 ^a µg/mL
- MIC (MIC-2) [4]: 31.2 ^a µg/mL
- MIC (MIC-2) [5]: 7.8 ^a µg/mL
- MIC (MIC-2) [6]: 0.5 ^a µg/mL
- MIC (MIC-2) [7]: 31.2 ^a µg/mL
- MIC (MIC-2) [8]: 31.2 ^a µg/mL
- MIC (MIC-0) [9]: 0.195 ^a µg/mL

SMILES: CCCN1CCN(c2ccc3nc(-c4ccc5nc(-c6ccc(OCC)cc6)[nH]c5c4)[nH]c3c2)CC1 [Compound 11]
- MIC / antifungal activity over all tested fungal strains [1]: inactive

SMILES: C#CCOc1ccc(-c2nc3ccc(-c4nc5ccc(N6CCN(C)CC6)cc5[nH]4)cc3[nH]2)cc1 [Compound 14]
- MIC [10]: 7.8 to 31.2 µg/mL (≈ 16.9 to 67.5 µM)

SMILES: CCCCCCCCCCCCN1CCN(c2ccc3nc(-c4ccc5nc(-c6ccc(O)cc6)[nH]c5c4)[nH]c3c2)CC1 [Compound 4]
- Intracellular ROS production ([11]; 8 and 16 µg/mL): no ROS accumulation
- MIC / antifungal activity over all tested fungal strains [1]: no activity

SMILES: CCCCCN1CCN(c2ccc3nc(-c4ccc5nc(-c6ccc(OCC)cc6)[nH]c5c4)[nH]c3c2)CC1 [Compound 12]
- MIC / antifungal activity over all tested fungal strains [1]: inactive

SMILES: C[C@@H]1[C@H](O)[C@@H](C)/C=C/C=C/C=C/C=C/C=C/C=C/C=C/[C@H](O[C@@H]2O[C@H](C)[C@@H](O)[C@H](N)[C@@H]2O)C[C@@H]2O[C@](O)(C[C@@H](O)C[C@@H](O)[C@H](O)CC[C@@H](O)C[C@@H](O)CC(=O)O[C@H]1C)C[C@H](O)[C@H]2C(=O)O [AmB, amphotericin B]
- Nature of activity in time-kill assay ([12]; 1× MIC): fungicidal
- Time after which fungal cells were completely killed ([12]; 1× MIC): 9 h

SMILES: CN1CCN(c2ccc3[nH]c(-c4ccc5[nH]c(-c6ccc(O)cc6)nc5c4)nc3c2)CC1 [Compound 2]
- MIC [13]: 7.8 to 15.6 µg/mL (≈ 18.4 to 36.7 µM)
- IC50 at 24 h [14]: ≥ 31.2 µg/mL
- Nature of activity in time-kill assay ([12]; 1× MIC): fungistatic
- Nature of activity in time-kill assay ([12]; 2× MIC): fungicidal
- MIC [15]: 3.9 to 7.8 µg/mL (≈ 9.19 to 18.4 µM)
- MIC [16]: 3.9 to 7.8 µg/mL (≈ 9.19 to 18.4 µM)
- Intracellular ROS production [11, 19]: significant amount of ROS production
- MIC [17]: 7.8 to 15.6 µg/mL (≈ 18.4 to 36.7 µM)
- IC50 at 24 h [18]: ≥ 31.2 µg/mL
- MIC [10]: 7.8 to 15.6 µg/mL (≈ 18.4 to 36.7 µM)

SMILES: OC(Cn1cncn1)(Cn1cncn1)c1ccc(F)cc1F [FLC, fluconazole]
- MIC (MIC-2) [2]: >125 ^a µg/mL
- MIC (MIC-2) [3]: 62.5 ^a µg/mL
- MIC (MIC-2) [4]: >125 ^a µg/mL
- MIC (MIC-2) [5]: 15.6 ^a µg/mL
- MIC (MIC-2) [6]: 62.5 ^a µg/mL
- MIC (MIC-2) [7]: 62.5 ^a µg/mL
- MIC (MIC-2) [8]: >125 ^a µg/mL
- MIC (MIC-0) [9]: 62.5 ^a µg/mL

SMILES: CC[C@@H]([C@H](C)O)n1ncn(-c2ccc(N3CCN(c4ccc(OC[C@@H]5CO[C@@](Cn6cncn6)(c6ccc(F)cc6F)C5)cc4)CC3)cc2)c1=O [POS, posaconazole]
- MIC (MIC-2) [2]: >62.5 ^a µg/mL
- MIC (MIC-2) [3]: 15.6 ^a µg/mL
- MIC (MIC-2) [4]: 31.2 ^a µg/mL
- MIC (MIC-2) [5]: 7.8 ^a µg/mL
- MIC (MIC-2) [6]: 0.5 ^a µg/mL
- MIC (MIC-2) [7]: 15.6 ^a µg/mL
- MIC (MIC-2) [8]: 31.2 ^a µg/mL
- MIC (MIC-0) [9]: 0.195 ^a µg/mL

SMILES: C#CCOc1ccc(-c2nc3ccc(-c4nc5ccc(-c6nc7ccc(N8CCN(C)CC8)cc7[nH]6)cc5[nH]4)cc3[nH]2)cc1 [Compound 18]
- MIC / antifungal activity over all tested fungal strains [1]: ≥ 31.2 µg/mL

SMILES: CCOc1ccc(-c2nc3cc(-c4nc5cc(N6CCN(C)CC6)ccc5[nH]4)ccc3[nH]2)cc1 [Compound 9]
- Nature of activity in time-kill assay ([12]; 1× MIC): fungistatic
- Nature of activity in time-kill assay ([12]; 2× MIC): fungicidal
- Intracellular ROS production [11, 19]: significant amount of ROS production
